Consider two molecules from patent publication EP0624586B1, “Substituted pyrroles” (F. HOFFMANN-LA ROCHE AG, priority 1993, dated 1994).

Molecules are shown by their SMILES. Where a name gives a salt, the structure may show the parent alone.

As a reminder, the IC50 is the concentration that inhibits the measured activity by half. Low readings indicate higher potency, high ones lower potency.

The test deals with protein kinase C. Nature of the test: in vitro protein kinase C inhibition (32P incorporation from [γ-32P]ATP into histone). In kind it is biochemical. The following applies: protein kinase C isolated from rat brains; 10 µM [γ-32P]ATP, lysine-rich histone, 30°C, 10 minutes. The method, then: Reaction mixtures (100 µl) contain 10 µM [γ-^32P]ATP, 0.2 mg/ml (about 15 µM) lysine-rich histone, 0.5 mM CaCl2 and 40 µg/ml phosphatidylserine in 25 mM Tris HCl, 5 mM MgNO3 (pH 7.5) buffer. The enzyme protein kinase C is isolated from rat brains according to the method of Kikkawa et al., J. Biol. Chem. 257, 13341 (1982). The reaction is started by adding the enzyme, is run at 30°C for 10 minutes and is then stopped using 1 ml of ice-cold 10% trichloroacetic acid. Acid-precipitable protein is collected on glass fibre discs by filtration. These discs are then washed with 5% trichloroacetic acid containing 20 mM sodium pyrophosphate (in order to remove unreacted ATP), followed by ethanol. The discs are dried and counted. Counts associated with each disc are used as a measure of the incorporation of ^32P from [γ-^32P]ATP into histone. The degree of enzyme blockade at each test compound concentration is calculated from (Cpm incorporated + test compound + enzyme)/(Cpm incorporated - test compound + enzyme)x 100% [formula] The IC50 value is that concentration of test compound which reduces by 50% the protein kinase-induced incorporation of the ^32P under the assay conditions described above.

`CC(C)[C@H](N)[C@H]1CCn2c(c(C3=C(c4cn(C)c5ccccc45)C(=O)NC3=O)c3ccccc32)C1` [Example 11, 3-[8(S)-[1(S)-amino-2-methylpropyl]-6,7,8,9-tetrahydropyrido[1,2-a]indol-10-yl-4-(1-methyl-3-indolyl)-1H-pyrrole-2,5-dione hydrochloride] had an IC50 of 5.5 nM.

`CCC(N)[C@H]1CCn2c(c(C3=C(c4cn(C)c5ccccc45)C(=O)NC3=O)c3ccccc32)C1` (single isomer, unassigned) [Example 10, 3-[8(S)-[1(R or S)-aminopropyl]-6,7,8,9-tetrahydropyrido[1,2-a]indol-10-yl]-4-(1-methyl-3-indolyl)-1H-pyrrole-2,5-dione hydrochloride]: inhibition was half-maximal at 3.3 nM (IC50).
